Our source for the remaining binding values is patent US11208412B2 (DAEGU-GYEONGBUK MEDICAL INNOVATION FOUNDATION, priority 2017, dated 2021).

Holding throughout (assay): Kinase selectivity, DiscoverX scanMAX Kinase assay panel (% control)
Holding throughout (type): binding

The target of experiment [1] is T1, kinases of the scanMAX Kinase assay panel (Homo sapiens, UniProt P07949, V804M).
T1 construct: purchased DiscoverX Co. (contract measurement) scanMAX Kinase assay panel
The following applies: kinase RET(V804M); 1 uM in DMSO. The method in brief:
(§1)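 Binding-panel profiling at one concentration, 1 uM in DMSO; values are % of DMSO control after subtracting the positive-control floor. Less than 35% means activity on that kinase.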

Experiment [2] has as its target T2, kinases of the scanMAX Kinase assay panel (Homo sapiens, UniProt P33981).
T2 construct: purchased DiscoverX Co. (contract measurement) scanMAX Kinase assay panel
T2 sequence (P33981 1-857): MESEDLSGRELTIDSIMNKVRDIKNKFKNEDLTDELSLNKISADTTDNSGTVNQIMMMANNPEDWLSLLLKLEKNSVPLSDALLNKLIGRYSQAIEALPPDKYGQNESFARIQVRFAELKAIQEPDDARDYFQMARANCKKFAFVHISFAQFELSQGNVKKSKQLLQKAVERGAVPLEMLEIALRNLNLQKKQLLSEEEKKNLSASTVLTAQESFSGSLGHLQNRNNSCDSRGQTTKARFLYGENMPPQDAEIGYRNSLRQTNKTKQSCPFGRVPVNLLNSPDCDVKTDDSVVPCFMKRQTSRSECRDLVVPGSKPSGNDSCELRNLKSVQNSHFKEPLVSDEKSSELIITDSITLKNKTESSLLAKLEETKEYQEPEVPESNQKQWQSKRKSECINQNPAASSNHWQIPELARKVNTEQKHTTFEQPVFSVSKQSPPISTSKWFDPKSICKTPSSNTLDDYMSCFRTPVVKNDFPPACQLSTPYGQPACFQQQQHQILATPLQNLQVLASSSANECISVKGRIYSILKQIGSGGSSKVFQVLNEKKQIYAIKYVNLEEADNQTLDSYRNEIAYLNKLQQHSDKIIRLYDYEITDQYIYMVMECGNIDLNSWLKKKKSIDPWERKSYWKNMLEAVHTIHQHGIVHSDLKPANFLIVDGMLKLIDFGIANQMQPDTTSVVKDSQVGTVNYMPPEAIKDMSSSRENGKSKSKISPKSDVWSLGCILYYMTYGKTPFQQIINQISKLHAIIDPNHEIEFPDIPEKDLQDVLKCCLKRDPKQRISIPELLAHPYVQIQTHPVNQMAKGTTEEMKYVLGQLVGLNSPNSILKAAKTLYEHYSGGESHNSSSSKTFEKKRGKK
The note with it: kinase TTK; 1 uM in DMSO. The gist of the method: as §1

In experiment [3] the target is T3, kinases of the scanMAX Kinase assay panel (Homo sapiens, UniProt Q15303).
T3 construct: purchased DiscoverX Co. (contract measurement) scanMAX Kinase assay panel
T3 sequence (Q15303 26-1308): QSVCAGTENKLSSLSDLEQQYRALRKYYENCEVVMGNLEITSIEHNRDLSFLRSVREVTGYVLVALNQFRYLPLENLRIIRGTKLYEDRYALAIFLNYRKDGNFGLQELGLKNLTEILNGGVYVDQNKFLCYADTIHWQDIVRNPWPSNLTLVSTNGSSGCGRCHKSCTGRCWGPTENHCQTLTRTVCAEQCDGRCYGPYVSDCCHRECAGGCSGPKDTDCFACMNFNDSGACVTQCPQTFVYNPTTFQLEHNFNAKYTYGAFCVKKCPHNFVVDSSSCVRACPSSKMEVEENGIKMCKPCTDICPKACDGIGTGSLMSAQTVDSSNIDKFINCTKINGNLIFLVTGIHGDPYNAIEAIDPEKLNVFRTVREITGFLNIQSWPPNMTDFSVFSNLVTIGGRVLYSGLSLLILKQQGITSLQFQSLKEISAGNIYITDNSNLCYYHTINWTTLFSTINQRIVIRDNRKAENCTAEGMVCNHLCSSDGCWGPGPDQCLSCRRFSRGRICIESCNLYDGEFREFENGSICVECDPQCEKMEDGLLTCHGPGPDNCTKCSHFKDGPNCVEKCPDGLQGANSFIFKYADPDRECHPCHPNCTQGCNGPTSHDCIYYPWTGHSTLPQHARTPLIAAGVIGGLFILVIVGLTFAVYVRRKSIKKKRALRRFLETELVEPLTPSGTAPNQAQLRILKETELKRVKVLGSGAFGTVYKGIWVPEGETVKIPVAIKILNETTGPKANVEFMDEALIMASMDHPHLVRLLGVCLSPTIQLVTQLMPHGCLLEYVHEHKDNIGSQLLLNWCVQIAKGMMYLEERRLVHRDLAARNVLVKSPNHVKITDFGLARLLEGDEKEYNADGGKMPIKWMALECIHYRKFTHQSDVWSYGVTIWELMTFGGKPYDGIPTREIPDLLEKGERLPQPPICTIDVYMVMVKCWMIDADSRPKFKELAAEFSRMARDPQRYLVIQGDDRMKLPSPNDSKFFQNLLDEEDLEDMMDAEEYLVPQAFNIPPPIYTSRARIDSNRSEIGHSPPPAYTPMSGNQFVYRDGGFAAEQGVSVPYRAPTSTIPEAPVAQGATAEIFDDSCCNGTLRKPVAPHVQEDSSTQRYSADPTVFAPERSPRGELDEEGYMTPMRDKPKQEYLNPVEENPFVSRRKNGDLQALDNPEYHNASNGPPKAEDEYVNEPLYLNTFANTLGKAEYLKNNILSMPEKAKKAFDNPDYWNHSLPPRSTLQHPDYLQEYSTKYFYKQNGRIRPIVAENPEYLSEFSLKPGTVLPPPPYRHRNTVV
The following applies: ERBB4; 1 uM. The gist of the method:
as §1

The target of experiment [4] is T4, kinases of the scanMAX Kinase assay panel (Homo sapiens, UniProt Q9NRP7).
T4 construct: purchased DiscoverX Co. (contract measurement) scanMAX Kinase assay panel
T4 sequence (Q9NRP7 1-1315): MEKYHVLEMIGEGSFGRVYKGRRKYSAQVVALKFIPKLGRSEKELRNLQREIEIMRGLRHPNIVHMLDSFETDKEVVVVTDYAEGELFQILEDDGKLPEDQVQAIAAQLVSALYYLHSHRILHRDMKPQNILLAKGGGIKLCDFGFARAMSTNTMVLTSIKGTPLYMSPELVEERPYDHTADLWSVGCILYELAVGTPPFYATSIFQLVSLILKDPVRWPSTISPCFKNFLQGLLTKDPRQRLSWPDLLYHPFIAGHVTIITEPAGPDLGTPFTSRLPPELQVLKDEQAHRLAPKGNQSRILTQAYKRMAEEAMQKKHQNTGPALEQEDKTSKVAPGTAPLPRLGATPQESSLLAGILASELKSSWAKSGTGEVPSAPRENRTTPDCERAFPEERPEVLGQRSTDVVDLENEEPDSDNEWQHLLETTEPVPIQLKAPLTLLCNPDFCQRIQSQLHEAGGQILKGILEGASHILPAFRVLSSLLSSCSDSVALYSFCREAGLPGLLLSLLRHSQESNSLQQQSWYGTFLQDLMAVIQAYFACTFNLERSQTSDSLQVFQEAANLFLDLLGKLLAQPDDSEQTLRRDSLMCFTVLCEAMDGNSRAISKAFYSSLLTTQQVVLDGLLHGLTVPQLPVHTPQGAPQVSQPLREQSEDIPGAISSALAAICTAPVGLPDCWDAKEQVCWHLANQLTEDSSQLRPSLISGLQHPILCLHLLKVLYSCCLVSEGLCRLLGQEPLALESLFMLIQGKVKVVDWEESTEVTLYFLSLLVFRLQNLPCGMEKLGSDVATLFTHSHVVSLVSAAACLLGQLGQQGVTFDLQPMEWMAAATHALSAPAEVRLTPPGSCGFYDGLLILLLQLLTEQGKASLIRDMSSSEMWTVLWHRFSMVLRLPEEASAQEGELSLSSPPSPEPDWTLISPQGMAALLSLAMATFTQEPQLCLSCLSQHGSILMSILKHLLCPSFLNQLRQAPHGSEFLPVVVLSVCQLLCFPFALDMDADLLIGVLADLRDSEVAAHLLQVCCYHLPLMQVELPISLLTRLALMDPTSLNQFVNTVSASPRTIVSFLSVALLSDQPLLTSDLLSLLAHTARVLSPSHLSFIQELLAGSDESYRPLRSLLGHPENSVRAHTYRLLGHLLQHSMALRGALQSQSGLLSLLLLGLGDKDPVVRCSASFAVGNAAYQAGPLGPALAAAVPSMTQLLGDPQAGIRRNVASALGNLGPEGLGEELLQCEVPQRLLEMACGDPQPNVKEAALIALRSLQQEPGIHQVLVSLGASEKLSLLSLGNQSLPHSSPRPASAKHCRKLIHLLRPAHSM
The note with it: kinase STK36; 1 uM in DMSO. The gist of the method:
as §1

Experiment [5] concerns the target T5, kinases of the scanMAX Kinase assay panel (Homo sapiens, UniProt Q14289).
T5 construct: purchased DiscoverX Co. (contract measurement) scanMAX Kinase assay panel
The following applies: PYK2; 1 uM. The method in brief: as §1

In experiment [6] the target is T6, kinases of the scanMAX Kinase assay panel (Homo sapiens, UniProt P42336, H1047Y).
T6 construct: purchased DiscoverX Co. (contract measurement) scanMAX Kinase assay panel
T6 sequence (P42336 whole entry H1047Y): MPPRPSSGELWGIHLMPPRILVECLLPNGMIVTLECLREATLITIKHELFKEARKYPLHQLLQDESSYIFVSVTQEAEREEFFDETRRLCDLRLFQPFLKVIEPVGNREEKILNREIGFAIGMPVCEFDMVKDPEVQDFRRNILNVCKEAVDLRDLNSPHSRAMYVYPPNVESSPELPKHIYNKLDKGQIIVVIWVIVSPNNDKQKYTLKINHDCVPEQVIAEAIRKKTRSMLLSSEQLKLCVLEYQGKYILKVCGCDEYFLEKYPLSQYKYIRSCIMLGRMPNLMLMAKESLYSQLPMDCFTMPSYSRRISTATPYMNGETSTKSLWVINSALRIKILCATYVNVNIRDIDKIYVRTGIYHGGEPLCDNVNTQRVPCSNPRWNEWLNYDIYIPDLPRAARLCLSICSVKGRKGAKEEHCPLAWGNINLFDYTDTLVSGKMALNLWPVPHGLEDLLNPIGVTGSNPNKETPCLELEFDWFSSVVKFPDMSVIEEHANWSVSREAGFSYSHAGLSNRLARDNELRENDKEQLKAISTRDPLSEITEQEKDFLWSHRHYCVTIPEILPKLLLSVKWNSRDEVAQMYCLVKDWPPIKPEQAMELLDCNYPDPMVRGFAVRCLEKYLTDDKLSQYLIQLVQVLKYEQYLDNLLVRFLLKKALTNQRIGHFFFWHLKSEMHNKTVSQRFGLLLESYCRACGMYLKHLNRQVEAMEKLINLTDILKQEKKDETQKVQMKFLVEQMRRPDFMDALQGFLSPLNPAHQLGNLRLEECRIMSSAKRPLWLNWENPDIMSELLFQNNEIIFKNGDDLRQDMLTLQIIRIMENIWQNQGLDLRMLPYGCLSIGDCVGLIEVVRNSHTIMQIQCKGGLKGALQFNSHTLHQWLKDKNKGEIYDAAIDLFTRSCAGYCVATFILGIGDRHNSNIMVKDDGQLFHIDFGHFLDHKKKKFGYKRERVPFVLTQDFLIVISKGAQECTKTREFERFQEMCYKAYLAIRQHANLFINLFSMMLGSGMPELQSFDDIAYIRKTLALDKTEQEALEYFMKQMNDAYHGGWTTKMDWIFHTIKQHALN
The note with it: PIK3CA(H1047Y); 1 uM. The method in brief:
as §1

Experiment [7] has as its target T7, kinases of the scanMAX Kinase assay panel (Homo sapiens, UniProt Q99755).
T7 construct: purchased DiscoverX Co. (contract measurement) scanMAX Kinase assay panel
The note with it: PIP5K1A; 1 uM. The gist of the method:
as §1

T7 sequence (Q99755 whole entry): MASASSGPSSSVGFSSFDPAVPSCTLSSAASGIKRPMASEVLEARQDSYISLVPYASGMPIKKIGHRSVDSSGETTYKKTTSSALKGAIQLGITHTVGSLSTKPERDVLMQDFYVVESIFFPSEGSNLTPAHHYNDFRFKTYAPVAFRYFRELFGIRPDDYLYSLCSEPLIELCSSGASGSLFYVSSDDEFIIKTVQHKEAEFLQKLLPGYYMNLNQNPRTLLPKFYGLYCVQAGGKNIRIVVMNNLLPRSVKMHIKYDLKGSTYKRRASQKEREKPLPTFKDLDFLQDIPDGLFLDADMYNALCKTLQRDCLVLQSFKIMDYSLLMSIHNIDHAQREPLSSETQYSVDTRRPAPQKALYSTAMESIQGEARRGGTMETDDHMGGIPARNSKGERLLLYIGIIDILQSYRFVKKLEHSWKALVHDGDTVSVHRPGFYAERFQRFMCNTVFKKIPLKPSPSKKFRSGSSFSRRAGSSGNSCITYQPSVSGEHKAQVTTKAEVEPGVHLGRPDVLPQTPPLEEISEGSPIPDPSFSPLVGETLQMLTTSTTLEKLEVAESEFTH
T1 sequence (P07949 29-1114 V804M): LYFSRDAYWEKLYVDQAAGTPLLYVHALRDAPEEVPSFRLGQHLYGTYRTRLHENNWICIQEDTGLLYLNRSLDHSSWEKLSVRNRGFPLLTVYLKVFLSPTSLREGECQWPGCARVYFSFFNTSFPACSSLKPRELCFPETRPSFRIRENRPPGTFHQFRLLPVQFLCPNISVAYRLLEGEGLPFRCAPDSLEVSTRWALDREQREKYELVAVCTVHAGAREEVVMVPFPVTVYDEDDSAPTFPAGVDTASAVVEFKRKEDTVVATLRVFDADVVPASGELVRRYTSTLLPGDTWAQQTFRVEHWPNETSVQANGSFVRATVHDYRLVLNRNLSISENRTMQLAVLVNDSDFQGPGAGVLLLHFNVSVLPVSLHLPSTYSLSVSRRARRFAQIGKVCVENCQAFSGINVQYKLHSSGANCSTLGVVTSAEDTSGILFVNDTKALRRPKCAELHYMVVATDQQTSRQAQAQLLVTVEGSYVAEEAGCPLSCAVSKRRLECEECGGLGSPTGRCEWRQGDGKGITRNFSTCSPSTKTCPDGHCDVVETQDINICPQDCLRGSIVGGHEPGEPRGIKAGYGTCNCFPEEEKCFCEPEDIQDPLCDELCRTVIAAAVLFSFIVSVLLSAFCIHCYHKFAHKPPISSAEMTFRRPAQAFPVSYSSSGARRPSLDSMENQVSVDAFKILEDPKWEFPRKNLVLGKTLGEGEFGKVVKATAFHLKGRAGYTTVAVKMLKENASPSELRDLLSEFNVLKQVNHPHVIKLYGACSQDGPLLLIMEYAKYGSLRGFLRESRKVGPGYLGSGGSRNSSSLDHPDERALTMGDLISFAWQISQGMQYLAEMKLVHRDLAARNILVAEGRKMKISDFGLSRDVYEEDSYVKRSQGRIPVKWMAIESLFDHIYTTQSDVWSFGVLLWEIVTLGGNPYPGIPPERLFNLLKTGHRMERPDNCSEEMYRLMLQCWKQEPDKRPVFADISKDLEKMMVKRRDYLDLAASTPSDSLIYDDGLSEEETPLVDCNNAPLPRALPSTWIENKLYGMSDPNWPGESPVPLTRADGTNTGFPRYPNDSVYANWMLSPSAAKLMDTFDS
T5 sequence (Q14289 whole entry): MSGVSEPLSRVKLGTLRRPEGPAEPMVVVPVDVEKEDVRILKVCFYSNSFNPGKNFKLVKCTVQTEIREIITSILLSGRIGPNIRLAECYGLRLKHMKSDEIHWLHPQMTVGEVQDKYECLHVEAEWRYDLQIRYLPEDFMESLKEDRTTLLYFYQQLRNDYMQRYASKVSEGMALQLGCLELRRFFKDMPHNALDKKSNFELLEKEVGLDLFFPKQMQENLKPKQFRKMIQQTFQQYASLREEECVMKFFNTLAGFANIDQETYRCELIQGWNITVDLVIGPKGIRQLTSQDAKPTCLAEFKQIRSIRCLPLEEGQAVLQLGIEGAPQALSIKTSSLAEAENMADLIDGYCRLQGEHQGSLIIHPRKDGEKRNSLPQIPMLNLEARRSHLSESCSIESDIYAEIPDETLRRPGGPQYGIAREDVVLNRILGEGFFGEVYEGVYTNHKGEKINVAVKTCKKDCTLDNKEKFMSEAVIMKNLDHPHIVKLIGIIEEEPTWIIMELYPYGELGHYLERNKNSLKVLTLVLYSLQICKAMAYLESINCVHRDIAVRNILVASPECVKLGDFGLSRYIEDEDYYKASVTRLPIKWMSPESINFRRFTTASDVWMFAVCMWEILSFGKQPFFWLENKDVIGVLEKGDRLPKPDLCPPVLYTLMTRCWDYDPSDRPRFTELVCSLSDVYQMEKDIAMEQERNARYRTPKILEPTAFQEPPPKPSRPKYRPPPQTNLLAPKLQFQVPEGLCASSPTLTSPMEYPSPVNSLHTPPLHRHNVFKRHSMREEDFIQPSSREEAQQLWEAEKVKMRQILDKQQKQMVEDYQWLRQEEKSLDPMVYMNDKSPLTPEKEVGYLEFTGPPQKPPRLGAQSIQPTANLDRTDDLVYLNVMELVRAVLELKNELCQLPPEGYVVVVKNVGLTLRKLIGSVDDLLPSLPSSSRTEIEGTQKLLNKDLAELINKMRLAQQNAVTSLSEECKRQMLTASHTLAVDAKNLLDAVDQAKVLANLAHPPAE

As for `CC1(Nc2nc(Nc3cnn([C@H]4CCN(C5COC5)C[C@@H]4F)c3Cl)nc3[nH]cc(C#N)c23)CC1` [Example 52, 2-((5-chloro-1-((3S,4S)-3-fluoro-1-(oxetane-3-yl)piperidine-4-yl)-1H-pyrazole-4-yl)amino)((1-methylcyclopropyl)amino)-7H-pyrrolo[2,3-d]pyrimidine-5-carbonitrile], the remaining binding at 1 µM in experiment [1] was 0%; in experiment [2] it was 0.25%; in experiment [3], 45%; in experiment [4] it was 85%; in experiment [5] it was 1.2%; in experiment [6], 62%. This molecule yielded a remaining binding at 1 µM in experiment [7] of 2.5%.
As for `CCNc1nc(Nc2ccc(C(=O)N3CCC(N4CCOCC4)CC3)cc2OC)nc2[nH]cc(C(F)(F)F)c12` [Example 104, (4-((4-(ethylamino)-5-(trifluoromethyl)-7H-pyrrolo[2,3-d]pyrimidine-2-yl)amino)-3-methoxyphenyl)(4-morpholinopiperidine-1-yl)methanone], the remaining binding at 1 µM in experiment [1] stood at 87%; in experiment [2] it was 1.4%; in experiment [3], 100%; in experiment [4] it was 100%; in experiment [5] it was 2.8%; in experiment [6], 96%. Further, in experiment [7], the remaining binding at 1 µM was determined as 100%.
Turning to `CNc1nc(Nc2ccc(C(=O)N3CCOCC3)cc2OC)nc2[nH]cc(C#N)c12` [Example 1, 2-((2-methoxy-4-(morpholine-4-carbonyl)phenyl)amino)-4-(methylamino)-7H-pyrrolo[2,3-d]pyrimidine-5-carbonitrile], the remaining binding at 1 µM was 89% in experiment [1]; 12% in experiment [2]; 99% in experiment [3]; 97% in experiment [4]; 25% in experiment [5]; 100% in experiment [6]. Further, the remaining binding at 1 µM in experiment [7] amounted to 99%.
